Results: patent US20240132431A1, “METHOD FOR ALKYLATING ACIDIC FUNCTIONAL GROUP” (Chugai Seiyaku Kabushiki Kaisha, priority 2021, published 2024)

Molecular target: T1, Bcl-2 protein (Recombinant Human Bcl-2 Protein) (Homo sapiens, UniProt P10415)
T1 construct: purchased Novus NBP2-34889
Assay: Binding evaluation of mixture library compounds to Bcl-2 using AS-MS (affinity selection mass spectrometry)
Details: ASMS Ratio(%)=(A−C)/B×100; for ASMS ratio (%) n = 1: replicate n = 1; for ASMS ratio (%) n = 2: replicate n = 2
Description: For one well of MICROPLATE, 96-well, PP, V-BOTTOM (Greiner bio-one, 651201), DMSO solutions of 12 mixtures (prepared to approximately 0.58 mM based on calculations from the average molecular weight of each mixture), in each of which 100 compounds are mixed, were each dispensed, and dispensed into a total of 12 wells, where the 12 mixtures are mixAI-B4J-01, mixAI-B1M-01, mixAI-B1K-01, mixAI-B10-01, mixAI-B1A-01, mixAI-B3A-01, mixAI-B21-01, mixAI-B2L-01, mixAI-B2N-01, mixAI-B2A-01, mixAI-B2Q-01, and mixAI-B2R-01 listed in [Table AI-03-B4J-01], [Table AI-03-B1M-01], [Table AI-03-B1K-01], [Table AI-03-B10-01], [Table AI-03-B1A-01], [Table AI-03-B3A-01], [Table AI-03-B2I-01], [Table AI-03-B2L-01], [Table AI-03-B2N-01], [Table AI-03-B2A-01], [Table AI-03-B2Q-01], and [AI-03-B2R-01] shown in Example 6. Using the LABCYTE ECHO® 555 Acoustic Dispensing System (BECKMAN COULTER), 70 nL was collected from each of the 12 wells into one arbitrary well to prepare a sample solution with 1200 compounds in the mixed state (the presence of 1152 compounds had already been identified when prepared in Example 6-5-3). (In the present specification, the mixture collected in this one well is referred to as one library.) Furthermore, a Bcl-2 protein (Novus, NBP2-34889, Recombinant Human Bcl-2 Protein, Lot E60145051) (19.2 μL) that had been prepared in advance to be 20.9 μM using a Tris-HCl buffer (25 mM Tris-HCl pH 7.4, 150 mM NaCl, 0.025% Tween-20, 1 mM DTT) was added to the well in which 1200 compounds (the presence of 1152 compounds had already been identified when prepared in Example 6-5-3) were dispensed (final compound concentration […], final Bcl-2 concentration 20 μM), and the mixture was incubated in the dark at 23° C. for 1 hour. Next, using the 96-well MacroSpin column, P-2 Material (Harvard, 74-5655) that had been swollen, conditioning of the 96-well MacroSpin column was performed three times by centrifugation with 200 μL of an assay buffer (25 mM Tris-HCl pH 7.4, 150 mM NaCl, 0.025% Tween-20, 1 mM DTT), 2000 XG, 4° C., 2 min. Subsequently, 20 μL of the sample after incubation was added to the 96-well MacroSpin column, P-2 Material, that had been conditioned, and SEC treatment was performed by centrifugation at 2000×G for 2 minutes. To the liquid passed from the SEC, 32 μL of a 1:1 mixed solution of acetonitrile and methanol (LC/MS grade, Fujifilm Wako Pure Chemical Corporation) was added, the mixture was centrifuged at 1800×G, 4° C., 5 min, and the supernatant was used as analysis sample ASMS (A), while a sample that had been prepared by the same operations at 1200 compounds/well and to which only the Tris-HCl buffer had been added without the Bcl-2 protein was incubated under the same conditions, no 96-well MacroSpin column treatment was performed, the same organic solvent was added, and the supernatant solution obtained by centrifugation was used as STD (B). Next, a sample that had been prepared by the same operations at 1200 compounds/well and to which only the Tris-HCl buffer had been added without the Bcl-2 protein was incubated under the same conditions, the same 96-well MacroSpin column treatment was performed, the same organic solvent was added, and the supernatant solution obtained by centrifugation was used as BK (C), and measured by reversed phase LC/MS.
Then, analysis of the 1200 compounds was carried out for samples A, B, and C with TraceFinder 5.1 (Thermo Fisher Scientific) and CHANCE Software (in-house), and the ASMS Ratio (%) was calculated according to the following calculation formula.
Calculation formula: ASMS Ratio(%)=(A−C)/B×100

[1] = AS-MS on the mixture of 1200 library compounds
[2] = AS-MS, mixture of 1200 compounds, Bcl-2

T1 sequence (P10415 whole entry): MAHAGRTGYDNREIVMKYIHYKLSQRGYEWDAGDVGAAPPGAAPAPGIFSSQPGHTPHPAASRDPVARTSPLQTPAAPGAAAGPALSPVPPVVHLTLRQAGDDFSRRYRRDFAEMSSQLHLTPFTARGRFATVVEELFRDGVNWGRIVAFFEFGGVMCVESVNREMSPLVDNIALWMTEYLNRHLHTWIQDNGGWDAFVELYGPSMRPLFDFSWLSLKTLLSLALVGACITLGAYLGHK

Substance: 6-[4-[4-(3-Ethoxyphenyl)-3-fluorobenzoyl]piperazin-1-yl]-N-propylpyridazine-3-carboxamide [B1M087-01]
- ASMS ratio (%) n = 1 [1]: 3.8%
- ASMS ratio (%) n = 2 [1]: 3.2%

Substance: 6-[4-[4-(3-Ethoxyphenyl)-3-methylbenzoyl]piperazin-1-yl]-N-propylpyridazine-3-carboxamide [B1M036-01]
- ASMS ratio (%) n = 1 [2]: 6.7%
- ASMS ratio (%) n = 2 [2]: −1.2%

Substance: 6-[4-[4-(3-Ethoxyphenyl)naphthalene-1-carbonyl]piperazin-1-yl]-N-propylpyridazine-3-carboxamide [B1M071-01]
- ASMS ratio (%) n = 1 [2]: 34.0%
- ASMS ratio (%) n = 2 [2]: 24.4%

Substance: 6-[4-[4-(3-Ethoxyphenyl)thiophene-2-carbonyl]piperazin-1-yl]-N-propylpyridazine-3-carboxamide [B1M081-01]
- ASMS ratio (%) n = 1 [1]: 0.0%
- ASMS ratio (%) n = 2 [1]: 0.0%

Substance: 6-[4-[4-(5-Ethoxypyridin-3-yl)-3-fluorobenzoyl]piperazin-1-yl]-N-propylpyridazine-3-carboxamide [B1M088-01]
- ASMS ratio (%) n = 1 [1]: 0.0%
- ASMS ratio (%) n = 2 [1]: 0.0%

Substance: 6-[4-[4-(5-Ethoxypyridin-3-yl)-3-methylbenzoyl]piperazin-1-yl]-N-propylpyridazine-3-carboxamide [B1M037-01]
- ASMS ratio (%) n = 1 [2]: −1.5%
- ASMS ratio (%) n = 2 [2]: 2.3%

Substance: 6-[4-[4-(5-Ethoxypyridin-3-yl)naphthalene-1-carbonyl]piperazin-1-yl]-N-propylpyridazine-3-carboxamide [B1M072-01]
- ASMS ratio (%) n = 1 [2]: 0.0%
- ASMS ratio (%) n = 2 [2]: 1.9%

Substance: 6-[4-[4-(5-Ethoxypyridin-3-yl)thiophene-2-carbonyl]piperazin-1-yl]-N-propylpyridazine-3-carboxamide [B1M082-01]
- ASMS ratio (%) n = 1 [1]: 0.0%
- ASMS ratio (%) n = 2 [1]: 0.0%

Substance: 6-[4-[5-[2-(3-Ethoxyphenyl)ethynyl]pyridine-3-carbonyl]piperazin-1-yl]-N-propylpyridazine-3-carboxamide [B1M001-01]
- ASMS ratio (%) n = 1 [2]: 0.0%
- ASMS ratio (%) n = 2 [2]: 0.0%

Substance: 6-[4-[5-[2-(5-Ethoxypyridin-3-yl)ethynyl]pyridine-3-carbonyl]piperazin-1-yl]-N-propylpyridazine-3-carboxamide [B1M056-01]
- ASMS ratio (%) n = 1 [2]: 0.5%
- ASMS ratio (%) n = 2 [2]: 0.0%

Substance: 6-[4-[[2-(3-Ethoxyphenyl)phenyl]methyl]piperazin-1-yl]-N-propylpyridazine-3-carboxamide [B1M042-01]
- ASMS ratio (%) n = 1 [2]: 0.0%
- ASMS ratio (%) n = 2 [2]: 0.0%

Substance: 6-[4-[[2-[2-(3-Ethoxyphenyl)ethynyl]phenyl]methyl]piperazin-1-yl]-N-propylpyridazine-3-carboxamide [B1M053-01]
- ASMS ratio (%) n = 1 [2]: −3.0%
- ASMS ratio (%) n = 2 [2]: −3.1%

Substance: 6-[4-[[2-[2-(5-Ethoxypyridin-3-yl)ethynyl]phenyl]methyl]piperazin-1-yl]-N-propylpyridazine-3-carboxamide [B1M055-01]
- ASMS ratio (%) n = 1 [2]: 3.9%
- ASMS ratio (%) n = 2 [2]: −1.2%

Substance: 6-[4-[[3-(3-Ethoxyphenyl)-5-propan-2-yloxyphenyl]methyl]piperazin-1-yl]-N-propylpyridazine-3-carboxamide [B1M016-01]
- ASMS ratio (%) n = 1 [2]: 0.0%
- ASMS ratio (%) n = 2 [2]: 0.0%

Substance: 6-[4-[[3-(5-Ethoxypyridin-3-yl)-5-(trifluoromethoxy)phenyl]methyl]piperazin-1-yl]-N-propylpyridazine-3-carboxamide [B1M035-01]
- ASMS ratio (%) n = 1 [2]: 2.9%
- ASMS ratio (%) n = 2 [2]: −1.7%

Substance: 6-[4-[[3-(5-Ethoxypyridin-3-yl)-5-(trifluoromethyl)phenyl]methyl]piperazin-1-yl]-N-propylpyridazine-3-carboxamide [B1M029-01]
- ASMS ratio (%) n = 1 [2]: 3.0%
- ASMS ratio (%) n = 2 [2]: −0.6%

Substance: 6-[4-[[3-(5-Ethoxypyridin-3-yl)-5-propan-2-yloxyphenyl]methyl]piperazin-1-yl]-N-propylpyridazine-3-carboxamide [B1M066-01]
- ASMS ratio (%) n = 1 [2]: 0.0%
- ASMS ratio (%) n = 2 [2]: 4.4%

Substance: 6-[4-[[3-Ethoxy-5-(3-ethoxyphenyl)phenyl]methyl]piperazin-1-yl]-N-propylpyridazine-3-carboxamide [B1M010-01]
- ASMS ratio (%) n = 1 [2]: 0.0%
- ASMS ratio (%) n = 2 [2]: 0.0%

Substance: 6-[4-[[3-Ethoxy-5-(5-ethoxypyridin-3-yl)phenyl]methyl]piperazin-1-yl]-N-propylpyridazine-3-carboxamide [B1M012-01]
- ASMS ratio (%) n = 1 [2]: −3.5%
- ASMS ratio (%) n = 2 [2]: −2.3%

Substance: 6-[4-[[4-(3-Ethoxyphenyl)-2,6-dimethoxyphenyl]methyl]piperazin-1-yl]-N-propylpyridazine-3-carboxamide [B1M021-01]
- ASMS ratio (%) n = 1 [2]: 0.0%
- ASMS ratio (%) n = 2 [2]: 0.0%

Substance: 6-[4-[[4-(3-Ethoxyphenyl)-2-ethylphenyl]methyl]piperazin-1-yl]-N-propylpyridazine-3-carboxamide [B1M070-01]
- ASMS ratio (%) n = 1 [2]: 0.0%
- ASMS ratio (%) n = 2 [2]: 0.0%

Substance: 6-[4-[[4-(3-Ethoxyphenyl)-2-methoxyphenyl]methyl]piperazin-1-yl]-N-propylpyridazine-3-carboxamide [B1M094-01]
- ASMS ratio (%) n = 1 [1]: −1.5%
- ASMS ratio (%) n = 2 [1]: −2.1%

Substance: 6-[4-[[4-(3-Ethoxyphenyl)-3-methylphenyl]methyl]piperazin-1-yl]-N-propylpyridazine-3-carboxamide [B1M059-01]
- ASMS ratio (%) n = 1 [2]: −5.5%
- ASMS ratio (%) n = 2 [2]: −7.2%

Substance: 6-[4-[[4-(3-Ethoxyphenyl)naphthalen-1-yl]methyl]piperazin-1-yl]-N-propylpyridazine-3-carboxamide [B1M045-01]
- ASMS ratio (%) n = 1 [2]: 2.5%
- ASMS ratio (%) n = 2 [2]: −2.3%

Substance: 6-[4-[[4-(3-Ethoxyphenyl)thiophen-2-yl]methyl]piperazin-1-yl]-N-propylpyridazine-3-carboxamide [B1M049-01]
- ASMS ratio (%) n = 1 [2]: −0.9%
- ASMS ratio (%) n = 2 [2]: −0.4%

Substance: 6-[4-[[4-(5-Ethoxypyridin-3-yl)-2,6-dimethoxyphenyl]methyl]piperazin-1-yl]-N-propylpyridazine-3-carboxamide [B1M023-01]
- ASMS ratio (%) n = 1 [2]: 1.4%
- ASMS ratio (%) n = 2 [2]: −3.0%

Substance: 6-[4-[[4-(5-Ethoxypyridin-3-yl)-3-fluorophenyl]methyl]piperazin-1-yl]-N-propylpyridazine-3-carboxamide [B1M086-01]
- ASMS ratio (%) n = 1 [1]: 0.0%
- ASMS ratio (%) n = 2 [1]: 0.0%
